The target in test [1] is T1, human adenosine A2A receptor (Homo sapiens, UniProt P29274).
T1 construct: expressed in transfected cells; host or cells: CHO cells, semliki forest virus expression system; washed membranes
Nature of the test: [3H]-SCH-58261 binding assay, human adenosine A2A receptor (CHO cell membranes, SPA). Particulars: recombinant human A2A receptor in CHO membranes, [3H]-SCH-58261 1 nM; read-out: hA2 (pKi) (converted). The protocol: Human Adenosine A2A Receptor
(§1) The human adenosine A2A receptor was recombinantly expressed in Chinese hamster ovary (CHO) cells using the semliki forest virus expression system. Cells were harvested, washed twice by centrifugation, homogenized and again washed by centrifugation. The final washed membrane pellet was suspended in a Tris (50 mM) buffer containing 120 mM NaCl, 5 mM KCl, 2 mM CaCl2 and 10 mM MgCl2 (pH 7.4) (buffer A). The [^3H]-SCH-58261 (Dionisotti et al., 1997, Br J Pharmacol 121, 353; 1 nM) binding assay was carried out in 96-well plates in the presence of 2.5 μg of membrane protein, 0.5 mg of Ysi-poly-1-lysine SPA beads and 0.1 U adenosine deaminase in a final volume of 200 μl of buffer A. Non-specific binding was defined using xanthine amine congener (XAC; 2 μM). Compounds were tested at 10 concentrations from 10 μM-0.3 nM. All assays were conducted in duplicate and repeated at least two times. Assay plates were incubated for 1 hour at room temperature before centrifugation and then bound ligand determined using a Packard Topcount scintillation counter. IC50 values were calculated using a non-linear curve fitting program and Ki values calculated using the Cheng-Prussoff equation.

Test [2] concerns the target T2, human adenosine A1 receptor (Homo sapiens, UniProt P30542).
T2 construct: expressed in transfected cells; host or cells: CHO cells, semliki forest virus expression system; washed membranes
T2 sequence (P30542 1-326): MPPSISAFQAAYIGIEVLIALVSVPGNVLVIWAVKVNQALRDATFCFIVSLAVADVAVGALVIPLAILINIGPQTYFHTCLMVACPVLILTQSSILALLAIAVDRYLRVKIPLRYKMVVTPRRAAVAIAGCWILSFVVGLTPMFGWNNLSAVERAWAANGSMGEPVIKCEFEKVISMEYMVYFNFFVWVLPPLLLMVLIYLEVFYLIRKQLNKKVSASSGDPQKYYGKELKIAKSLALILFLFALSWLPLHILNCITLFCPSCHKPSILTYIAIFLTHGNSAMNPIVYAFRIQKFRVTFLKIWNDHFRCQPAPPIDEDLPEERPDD
Nature of the test: [3H]-DPCPX binding assay, human adenosine A1 receptor (CHO cell membranes, SPA). Particulars: selectivity of hA2A versus hA1 binding. The procedure:
Human Adenosine A1 Receptor
as §1, with “A1” for “A2A”, “[^3H]-DPCPX (([propyl-^3H]8-cyclopentyl-1,3-dipropyxanthine); 0.6” for “[^3H]-SCH-58261 (Dionisotti et al., 1997, Br J Pharmacol 121, 353; 1”, “ligand was” for “ligand”

T1 sequence (P29274 whole entry): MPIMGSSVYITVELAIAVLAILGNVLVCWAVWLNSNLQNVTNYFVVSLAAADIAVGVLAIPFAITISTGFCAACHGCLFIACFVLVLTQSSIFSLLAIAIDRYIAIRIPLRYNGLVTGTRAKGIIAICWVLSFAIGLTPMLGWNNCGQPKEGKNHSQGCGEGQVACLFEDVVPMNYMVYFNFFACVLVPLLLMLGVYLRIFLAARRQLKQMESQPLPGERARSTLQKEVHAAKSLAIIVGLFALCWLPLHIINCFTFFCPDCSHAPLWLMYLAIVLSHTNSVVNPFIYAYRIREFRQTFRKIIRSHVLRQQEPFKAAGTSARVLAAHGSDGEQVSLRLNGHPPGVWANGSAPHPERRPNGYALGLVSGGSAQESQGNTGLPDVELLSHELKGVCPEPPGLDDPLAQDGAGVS

In the case of `COc1ccc(C2COCCO2)c2sc(NC(=O)c3ccnc(C4=CCOCC4)c3)nc12` (racemic) [Example 5, (±)-2-(3,6-Dihydro-2H-pyran-4-yl)-N-(7-[1,4]dioxan-2-yl-4-methoxy-benzothiazol-2-yl)-isonicotinamide], the Ki in test [1] was 1450 pM. In addition, in test [2], the “Selectivity to hA1” value is recorded as 1421.

On to `COc1ccc(C2COCCO2)c2sc(NC(=O)c3ccnc(C4CCOCC4)c3)nc12` (racemic) [Example 6, (±)-N-(7-[1,4]Dioxan-2-yl-4-methoxy-benzothiazol-2-yl)-2-(tetrahydro-pyran-4-yl)-isonicotinamide], for which the Ki in test [1] was 1320 pM. For the same molecule, in test [2], the “Selectivity to hA1” value is 1582.

For `COc1cc(C(=O)Nc2nc3c(OC)ccc(C4COCCO4)c3s2)ccn1` (single isomer, unassigned; (+)) [Example 14, (+)-N-(7-[1,4]Dioxan-2-yl-4-methoxy-benzothiazol-2-yl)-2-methoxy-isonicotinamide], the Ki in test [1] is 1200 pM. Further, the “Selectivity to hA1” value in test [2] is recorded as 1828.

For the molecule `COc1ccc(C2COCCO2)c2sc(NC(=O)c3ccnc(C)c3)nc12` (single isomer, unassigned; (+)) [Example 15, (+)-N-(7-[1,4]Dioxan-2-yl-4-methoxy-benzothiazol-2-yl)-2-methyl-isonicotinamide], in test [1], the Ki is 955 pM. In test [2], the “Selectivity to hA1” value was 1758.

As to `COc1ccc(C2COCCO2)c2sc(NC(=O)c3ccc(F)cc3)nc12` (single isomer, unassigned; (+)) [Example 16, (+)-N-(7-[1,4]Dioxan-2-yl-4-methoxy-benzothiazol-2-yl)-4-fluoro-benzamide], the Ki in test [1] is 832 pM. Besides, the “Selectivity to hA1” value in test [2] stood at 1005.

As for `COc1ccc(C2COCCO2)c2sc(NC(=O)c3ccnc(N4CCOCC4)c3)nc12` (single isomer, unassigned; (+)) [Example 17, (+)-N-(7-[1,4]Dioxan-2-yl-4-methoxy-benzothiazol-2-yl)-2-morpholin-4-yl-isonicotinamide], the Ki in test [1] is 676 pM. Further, the “Selectivity to hA1” value in test [2] worked out at 3874.

In the case of `COc1ccc(C2COCCO2)c2sc(NC(=O)c3ccnc(N4CCC4)c3)nc12` (single isomer, unassigned; (+)) [Example 18, (+)-2-Azetidin-1-yl-N-(7-[1,4]dioxan-2-yl-4-methoxy-benzothiazol-2-yl)-isonicotinamide], the Ki in test [1] was 977 pM. The “Selectivity to hA1” value in test [2] came out at 7378.

On to `COc1ccc(C2COCCO2)c2sc(NC(=O)c3ccnc(N4CCC(O)CC4)c3)nc12` (single isomer, unassigned; (+)) [Example 29, (+)-4-Hydroxy-3,4,5,6-tetrahydro-2H-[1,2′]bipyridinyl-4′-carboxylic acid (7-[1,4]dioxan-2-yl-4-methoxy-benzothiazol-2-yl)-amide], for which the Ki in test [1] is 1070 pM. In test [2], the “Selectivity to hA1” value turned out to be 2850.

Take `COc1ccc(C2COCCO2)c2sc(NC(=O)c3ccnc(N4CC(F)C4)c3)nc12` (single isomer, unassigned; (+)) [Example 30, (+)-N-(7-[1,4]Dioxan-2-yl-4-methoxy-benzothiazol-2-yl)-2-(3-fluoro-azetidin-1-yl)-isonicotinamide]: in test [1], the Ki was 891 pM. Besides, in test [2], the “Selectivity to hA1” value is 6138.

`CCOC1CN(c2cc(C(=O)Nc3nc4c(OC)ccc(C5COCCO5)c4s3)ccn2)C1` (single isomer, unassigned; (+)) [Example 31, (+)-N-(7-[1,4]Dioxan-2-yl-4-methoxy-benzothiazol-2-yl)-2-(3-ethoxy-azetidin-1-yl)-isonicotinamide]: the Ki in test [1] was 1230 pM. Besides, the “Selectivity to hA1” value in test [2] was 2718.

As to `COc1ccc(C2COCCO2)c2sc(NC(=O)c3ccnc(N4CC(OC)C4)c3)nc12` (single isomer, unassigned; (+)) [Example 32, (+)-N-(7-[1,4]Dioxan-2-yl-4-methoxy-benzothiazol-2-yl)-2-(3-methoxy-azetidin-1-yl)-isonicotinamide], the Ki in test [1] is 646 pM. For the same molecule, the “Selectivity to hA1” value in test [2] came to 5404.

Regarding `COc1ccc(C(=O)Nc2nc3c(OC)ccc(C4COCCO4)c3s2)cc1` (single isomer, unassigned; (+)) [Example 33, (+)-N-(7-[1,4]Dioxan-2-yl-4-methoxy-benzothiazol-2-yl)-4-methoxy-benzamide], in test [1], the Ki is 708 pM. In addition, the “Selectivity to hA1” value in test [2] was determined as 1238.

Take `COc1ccc(C2COCCO2)c2sc(NC(=O)c3ccc(C)cc3)nc12` (single isomer, unassigned; (+)) [Example 34, (+)-N-(7-[1,4]Dioxan-2-yl-4-methoxy-benzothiazol-2-yl)-4-methyl-benzamide]: the Ki in test [1] was 417 pM. In addition, in test [2], the “Selectivity to hA1” value was 4503.

As to `COc1ccc(C2COCCO2)c2sc(NC(=O)c3ccc4c(c3)OCO4)nc12` (single isomer, unassigned; (+)) [Example 36, (+)-Benzo[1,3]dioxole-5-carboxylic acid (7-[1,4]dioxan-2-yl-4-methoxy-benzothiazol-2-yl)-amide], in test [1], the Ki was 537 pM. In addition, in test [2], the “Selectivity to hA1” value is listed as 1411.

In the case of `COc1cccc(C(=O)Nc2nc3c(OC)ccc(C4COCCO4)c3s2)c1` (single isomer, unassigned; (+)) [Example 37, (+)-N-(7-[1,4]Dioxan-2-yl-4-methoxy-benzothiazol-2-yl)-3-methoxy-benzamide], the Ki in test [1] is 724 pM. The “Selectivity to hA1” value in test [2] came to 10082.

With `COc1ccc(C2COCCO2)c2sc(NC(=O)c3cccc(F)c3)nc12` (single isomer, unassigned; (+)) [Example 39, (+)-N-(7-[1,4]Dioxan-2-yl-4-methoxy-benzothiazol-2-yl)-3-fluoro-benzamide], the Ki in test [1] was 1070 pM. The “Selectivity to hA1” value in test [2] was determined as 674.

With `COc1ccc(C2COCCO2)c2sc(NC(=O)c3ccnc(N4CC(O)C4)c3)nc12` (single isomer, unassigned; (+)) [Example 49, (+)-N-(7-[1,4]Dioxan-2-yl-4-methoxy-benzothiazol-2-yl)-2-(3-hydroxy-azetidin-1-yl)-isonicotinamide], in test [1], the Ki is 851 pM. Besides, the “Selectivity to hA1” value in test [2] is recorded as 2319.

Regarding `COc1ccc(C2COCCO2)c2sc(NC(=O)c3ccnc(OCCN4CCOCC4)c3)nc12` (single isomer, unassigned; (+)) [Example 52, (+)-N-(7-[1,4]Dioxan-2-yl-4-methoxy-benzothiazol-2-y)-2-(2-morpholin-4-yl-ethoxy)-isonicotinamide], the Ki in test [1] was 501 pM. The “Selectivity to hA1” value in test [2] is on record as 3141.

Turning to `COc1cncc(C(=O)Nc2nc3c(OC)ccc(C4COCCO4)c3s2)c1` (single isomer, unassigned; (+)) [Example 53, (+)-N-(7-[1,4]Dioxan-2-yl-4-methoxy-benzothiazol-2-yl)-5-methoxy-nicotinamide], the Ki in test [1] was 832 pM. Also, in test [2], the “Selectivity to hA1” value is reported as 8832.

For the origin of these results see patent publication US6872833B2, “Adenosine receptor ligands” (Hoffmann-La Roche Inc., priority 2003, dated 2005).
